Results as given in patent US11679113B2, “Anticancer treatment for uveal melanoma” (The Regents of the University of California, priority 2019, dated 2023).
Entries after “also recorded” stand apart in the source; their conditions may differ. Numbered stars: 1 amine (or outer) side, 2 acyl side, 3 side chain; on linkers, the order of the positions; unused ones are H or OH. Bridge positions count the residues as written; N and C are the ends. Square brackets hold non-standard residues; d marks the D form. Peptide text beside a SMILES is read from it. * marks the point of attachment. Leu(3R-OH,Nα-propionyl) = CCC(=O)N[C@H](C(=O)*)[C@H](O)C(C)C; X1 = CC(C)[C@@H](O[*:3])[C@H](N[*:1])C(=O)[*:2]; NMeT = CN[C@H](C(=O)O)[C@@H](C)O; dPhLac = O=C(O)[C@H](O)Cc1ccccc1; NMeA = CN[C@@H](C)C(=O)O; NMeDha = C=C(NC)C(=O)O

Columns and labels:
OM cells = test: FAKi/MEKi combination cell viability, synergy by Chou-Talalay CI and Bliss score; type: cell-based, human
From the text: Applicant performed detailed combinatorial analysis achieving ERK pathway inhibition by a clinical MEK inhibitor, trametinib, combined with FAKi (VS-4718) at a series of dilutions of drug combinations. Drug combinations scored as synergistic (i. e., > than additive) are identified by using the most widely used methodologies: the Chou-Talalay combination index (CI) (Chou, 2010; Chou, 1984; and Chou, 2006) and the Bliss independence score (ΔBliss) (Chou, 2010; Chou, 2006; Berenbaum, 1989; Greco, 1995; and Geary, 2013) as Applicant recently described (Yamaguchi et al., 216).

FAK [1] = test: Immunoblot of FAK phosphorylation (pY397-FAK) in UM cells; type: cell-based, human; conditions: OMM1.3 / Mel270 cells
Procedure: (§1) Western blot assays were performed as described previously (Feng et al., 2014b). Western blots were developed using Immobilon Western Chemiluminescent HRP substrate (Millipore, MA) according to the manufacturer's instructions.

[2] = test system: UM cell lines (92.1, OMM1.3, OMM1.5, Mel270, Mel202; GNAQ mutant); test: Cell viability assay (Alamar Blue) in UM cell lines; type: cell-based, human
Procedure: (§2) HEK293 and HEK293T cells were cultured in DMEM (Sigma-Aldrich Inc., MO) containing 10% FBS (Sigma-Aldrich Inc., MO) and 1× antibiotic/antimycotic solution (Sigma-Aldrich Inc., MO). Culture conditions for UM cells (OMM1.3, OMM1.5, MEL202, Mel270 and 92.1) have been described elsewhere (Schmitt et al., 2007; Zuidervaart et al., 2005). SK-MEL-28 cells were purchased from ATCC and cultured following ATCC recommendations in EMEM containing 10% FBS. VS-4718 (PND-1186) was purchased from MedChemExpress (MCE) pre-prepared as a 10 mM solution in DMSO. FR900359 (FR) was graciously supplied by the lab of Dr. Evi Kostenis.
(§3) Cell growth assays were performed as described previously (Yamaguchi et al., 2016). Cells were cultured in 96-well-plate and treated with drugs for 72 hr. The manufacturer's instructions of Alamar Blue Cell Viability Reagent were followed to complete the assay.

[3] = test system: SK-MEL-28 cells (BRAF mutant SKCM); test: Cell viability assay in SKCM control cell line; type: cell-based, human
Procedure: as §2, §3

ERK [4] = test: Immunoblot of ERK phosphorylation in UM cells; type: cell-based, human; conditions: OMM1.3 cells
Procedure: as §1

ERK [5] = test: Immunoblot of ERK phosphorylation in Gαq-DREADD expressing HEK293 cells stimulated with CNO; type: cell-based, human; conditions: CNO stimulation, 1 hr pre-treatment
Procedure: as §1

FAK [6] = test: Immunoblot of FAK phosphorylation in Gαq-DREADD expressing HEK293 cells stimulated with CNO; type: cell-based, human; conditions: CNO stimulation, 1 hr pre-treatment
Procedure: as §1

[7] = test system: YAP-target genes CTGF and CYR61; test: qPCR of YAP-target genes CTGF and CYR61 in UM cells; type: cell-based, human; conditions: 1 μM, 2 hr
OMM1.3 cells [8] = test: Immunoblot of cleaved PARP (apoptosis) in UM cells; type: cell-based, human; conditions: OMM1.3, 36 hr
Procedure: as §1

[9] = test system: Hippo pathway components (YAP, LATS1, MOB1, MST1); test: Immunoblot / immunoprecipitation of YAP and Hippo pathway components in UM cells; type: cell-based, human
Procedure: as §1
Cells were lysed with IP lysis buffer [10 mM Tris-Cl (pH 8.0), 150 mM NaCl, 1 mM EDTA, 0.3% CHAPS, 50 mM NaF, 1.5 mM Na3VO4, protease inhibitor (Thermo Scientific, CO), 1 mM DTT, 1 mM PMSF], and centrifuged at 16,000 g for 5 min at 4° C. Supernatants were incubated with first antibody for 1 hr at 4° C., and protein G or protein A conjugated resin for another 1 hr. Resins were then washed 3 times with lysis buffer and boiled in SDS-loading buffer.

OMM1.3 cells [10] = test: Colony formation assay in semisolid media (3D culture); type: cell-based, human; conditions: OMM1.3, semisolid media
Procedure: 3-dimensional cultures were performed as described previously (Tancioni et al., 2015). Briefly, 10,000 cells were embedded in 1% methylcellulose diluted in growth media and plated onto 6-well poly-hydroxyethyl methacrylic acid (poly-HEMA)-coated plates.

YAP = YAP nuclear/cytoplasmic localization (immunofluorescence, fractionation western blot) in UM cells; type: cell-based, human; conditions: OMM1.3, 1 μM
Procedure: Cells cultured on coverslips were washed with PBS, fixed with 3.7% formaldehyde in phosphate-buffered saline (PBS) for 30 min, and permeabilized using 0.05% Triton X-100 for 10 min. Fixed cells were blocked with 3% FBS-containing PBS for 30 min, and incubated with YAP (Cell signaling technology, MI) antibody (in 3% FBS-PBS otherwise stated) for 1 hr at room temperature. The reaction was visualized with Alexa-labeled secondary antibodies (Invitrogen, CA). Samples were mounted in PBS buffer containing Hoechst 33342 (Molecular Probes, OR) for nuclear staining. Images were acquired with an Axio Imager Z1 microscope equipped with ApoTome system controlled by ZEN 2012 software (Carl Zeiss, NY).
Subcellular fractionated lysates were generated using NE-PER Nuclear and Cytoplasmic Extraction Reagents (Thermo Scientific, CO) following manufacturer instructions.

UM tumor xenografts = test: Human UM tumor xenografts (Mel270, OMM1.3) with VS-4718 in vivo treatment; set-up: species or system mice
Procedure: All animal studies were carried out according the University of California San Diego (UCSD) Institutional Animal Care and Use Committee (IACUC)-approved protocol (S15195). Female NOD.Cg-Prkdcscid Il2rgtm1wjl/SzJ mice (commonly known as […], Jackson Laboratory, Maine), 6 to 8 weeks of age and weighing 18 to 20 g, were used in the study of UM cells, housed in appropriate sterile filter-capped cages, and provided food and water ad libitum. All procedures were essentially as previously described (Feng et al., 2014b; Schrage et al., 2015; Vaque et al., 2013). Briefly, exponentially growing cultures were harvested, washed, resuspended in RPMI 1640, and 2×10^6 viable cells were transplanted subcutaneously into the flanks of mice. For tumor growth analysis, tumor volume was assessed as [(LW^2/2); where L and W represent the length and the width of the tumor]. The animals were monitored twice weekly for tumor development. Results of animal experiments were expressed as mean±SEM of a total of tumors analyzed. To administer VS-4718 (Verastem Oncology; Needham, Mass.) to mice, 10 mg/ml VS-4718 was prepared in 0.5% carboxymethyl cellulose (CMC) (C5678, Sigma-Aldrich; St. Louis, Mo.) 0.1% Tween 80 (P1754, Sigma Aldrich; St. Louis, Mo.) in sterile water, 100 mg/kg administered via oral gavage twice daily, control group was treated with vehicle.
The following antibodies were used for immunohistochemistry anti-Ki67 (DAKO) and anti-YAP (CST). Unstained 5 μm paraffin sections were dewaxed in Safeclear II (Fisher Scientific, PA), hydrated through graded alcohols and distilled water, and washed three times with PBS. Antigens were retrieved using or 10 mM citrate buffer boiled in a microwave for 20 min (2 min at 100% power and 18 min at 10% power). The slides were allowed to cool down for 30 min at room temperature, rinsed twice with PBS, incubated in 3% hydrogen peroxide in PBS for 10 min to quench the endogenous peroxidase. […]

92.1 xenograft = test: 92.1 OM xenografts treated with MEKi, FAKi or both; type: in vivo, mice; conditions: 92.1 xenografts; trametinib 1 mg/kg QD i.p., VS-4718 50 mg/kg BID p.o.
From the text: FIGS. 17A and 17B show potent antitumoral and cytotoxic effects of FAKi/MEKi combination in OM xenografts. […] (FIG. 17B) Quantification of IHC tumor sections stained for BrdU, cleaved-caspase3 (Cl-Casp3), pERK1/2, and YAP. For each panel, the bars from left to right are control, MEKi, FAKi and MEKi+FAKi. Data are mean±SEM (7 mice/group), *p<0.05;**p<0.01; ***p<0.001; n. s. not significant.

YAP-signature genes = test: RNA-seq and Gene Set Enrichment Analysis of UM cells treated with FAKi; type: cell-based, human; conditions: OMM1.3, 1 μM, 2 hr
From the text: FAK is at the intersection of multiple signaling pathways that promote cancer progression (Sulzmaier et al., 2014), but it is not clear which downstream targets of FAK play a critical role in UM. As an approach to identify key downstream targets of the Gαq− FAK signaling axis, Applicant performed transcriptomic RNA-sequencing on UM cells treated with FAKi (i.e., FAK inhibitor), and performed Gene Set Enrichment Analysis (GSEA) (Subramanian et al., 2005) to characterize the transcriptional effects of inhibiting Gαq and FAK at the pathway level using over 10,000 gene sets from the MSigDB (Molecular Signatures Database), including two sub-collections of oncogenic signatures and hallmark gene sets that Applicants added to the database (Liberzon et al., 2015). […] These include the downregulation of genes described as stimulated by KRAS and EGFR and cytokines such as IL21 and IL15, consistent with the likely role in the activation of growth promoting pathways by FAK (Sulzmaier et al., 2014). […] In both cases, FAK inhibition or knockdown reduced YAP pY357 and increased pS127, and reduced mRNA levels of YAP targets and YAP activity measured by luciferase reporter assay (FIGS. 7A-7E), similar to UM cells.

[11] = after prolonged use; cited from earlier work

Molecule: CNS(=O)(=O)Nc1nccc(Cc2c(C)c3ccc(Oc4ncccn4)cc3oc2=O)c1F [CH5126766]
- synergy of growth inhibition in combination with FAKi VS-4718 (OM cells; combined with VS-4718): synergistic anti-proliferative effects
- synergy of anti-proliferative effect in combination with VS-6063 (defactinib) (OM cells; combined with VS-6063): synergistic anti-proliferative effects

Molecule: C=C1C(=O)N[C@@H](C)C(=O)N(C)[C@@H](C)C(=O)N[C@@H]([C@H](OC(=O)[C@@H](NC(=O)CC)[C@H](O)C(C)C)C(C)C)C(=O)N(C)[C@@H]([C@@H](C)OC)C(=O)O[C@H](C(C)C)[C@H](NC(C)=O)C(=O)O[C@H](Cc2ccccc2)C(=O)N1C [FR900359] (Ac-[X1][dPhLac][NMeDha]A[NMeA][X1](Leu(3R-OH,Nα-propionyl))[NMeT](Me); ester 1-C)
- FAK activation (pY397-FAK) in UM cells (FAK [1]): diminished
- UM cell viability / proliferation, result in words ([2]; UM cell lines): inhibition of cell proliferation
- SKCM cell proliferation, result in words [3]: only in UM cells
- ERK activation in UM cells (ERK [4]): diminished

Molecule: COc1ccc2c(c1)CC[C@@H]1[C@@H]2CC[C@]2(C)[C@@H](NCCCCCCN3C(=O)C=CC3=O)CC[C@@H]12 [U73122]
- ERK activation by Gαq-DREADD in HEK293 cells (ERK [5]): abolished
- FAK activation by Gαq-DREADD in HEK293 cells (FAK [6]): did not have an impact

Molecule: CNC(=O)c1ccccc1Nc1cc(Nc2ccc(N3CCOCC3)cc2OC)ncc1C(F)(F)F [VS-4718]
- mRNA of YAP-target genes CTGF and CYR61 (qPCR) [7]: significant reduction
- FAK activation (pY397-FAK) in UM cells (FAK [1]): inhibited FAK rapidly; also recorded: decrease in pY397-FAK
- EC50 ([2]; Homo sapiens, 92.1, OMM1.3, OMM1.5, Mel270, Mel202, 72 hr, read-out: EC50, sensitivity of UM cell lines to FAK inhibition (cell viability)): ~1000 nM
- EC50 ([3]; Homo sapiens, SK-MEK-28 (BRAF mutant), control): > 10000 nM
- cleaved PARP (UM apoptosis) (OMM1.3 cells [8]): accumulation of cleaved PARP; also recorded: increased cleaved PARP
- MOB1/LATS interaction [9]: enhanced
- p909-LATS1 [9]: increase
- p1079-LATS1 [9]: increase
- p-MST1 [9]: did not observe an increase
- pY26 MOB1 ([9]; 0-10 μM, 2 hr): dose-dependent decrease
- YAP phosphorylation on serine 127 (pS127-YAP) ([9]; listed as FAKi): increase
- YAP phosphorylation on tyrosine 357 (Y357) ([9]; listed as FAKi): repressed; also recorded: diminished phosphorylation
- total YAP protein level ([9]; long-term (up to 36 hours)): downregulation
- colony formation ability of UM cells (OMM1.3 cells [10]): nearly abolished the colony formation ability
- YAP nuclear accumulation (YAP): clearly diminished
- cytoplasmic retention of YAP in tumors (UM tumor xenografts; Mel270 tumors): clearly increased
- cell proliferation in UM tumors (Ki67) (UM tumor xenografts; two UM tumor models (Mel270, OMM1.3)): reduces
- UM tumor size (UM tumor xenografts; two UM tumor models (Mel270, OMM1.3), 100 mg/kg oral gavage twice daily): reduces
- antitumoral profile in OM xenografts (cl-Casp3) (92.1 xenograft): cytostatic profile
- expression of YAP-signature genes (RNA-seq, GSEA) (YAP-signature genes): significant downregulation

Molecule: C[C@@H](N)[C@H]1CC[C@H](C(=O)Nc2ccncc2)CC1 [Y-27632]
- FAK activation (pY397-FAK) in UM cells (FAK [1]): repressed FAK activation
- FAK activation by Gαq-DREADD in HEK293 cells (FAK [6]): repressed FAK activation

Molecule: Cc1ccc2c(c1)C(=O)C1(O)CCN(c3ccccc3)C1=N2 (stereo not drawn) [blebbistatin]
- FAK activation (pY397-FAK) in UM cells (FAK [1]): repressed FAK activation
- FAK activation by Gαq-DREADD in HEK293 cells (FAK [6]): repressed FAK activation

Molecule: verteporfin
- systemic toxicity [11]: high systemic toxicities
